Values quoted from earlier work as cited in patent US20160339010A1, “Treatment of Partly Controlled or Uncontrolled Severe Asthma” (TAKEDA GMBH, priority 2014, published 2016).

Columns and labels:
asthma patients = conditions: cited from earlier work
[1] = tested on: patients with high-dose corticosteroid dependent asthma; conditions: cited from earlier work
[2] = tested on: patients with severe and uncontrolled bronchial asthma; conditions: on top of Fluticasone 500 mcg/Salmeterol 50 mcg twice daily; cited from earlier work

Cn1c(=O)c2[nH]cnc2n(C)c1=O [theophylline]
benefit of add-on therapy to inhaled glucocorticosteroids (asthma patients): no benefit

CC(C)(O)c1ccccc1CC[C@@H](SCC1(CC(=O)[O-])CC1)c1cccc(/C=C/c2ccc3ccc(Cl)cc3n2)c1.[Na+] [montelukast, [R-(E)]-1-[[[1-[3-[2-(7-chloro-2-quinolinyl)ethenyl]phenyl]-3-[2-(1-hydroxy-1-methylethyl)phenyl]propyl]thio]methyl]cyclopropaneacetic acid]
sputum eosinophilia [1]: failure of montelukast to reduce

O=C(Nc1c(Cl)cncc1Cl)c1ccc(OC(F)F)c(OCC2CC2)c1 [Roflumilast]
FEV1 [2]: significantly improved | Forced vital capacity (FVC) [2]: significantly improved | accumulation of neutrophils in induced sputum [2]: reduced | morning PEF [2]: significantly improved
